Results: patent publication USRE40594E1, “Inhibitors of the bitter taste response” (Mount Sinai School of Medicine of New York University, priority 1998, dated 2008)
“Also recorded” adds a separate entry of the source.

Key:
[1] = system: bovine taste receptor cell membranes (taste receptors) with transducin; test: G protein activation assay (trypsin sensitivity): activation of transducin by bitter tastant plus taste membranes; format: biochemical, Bovine (Bos primigenius)
From the text: Taste receptor is contacted with gustducin or transducin and tastant, in the presence or absence of test inhibitor, under conditions suitable for activation of the G-protein present. […] In specific non-limiting embodiments, a subunits of transducin or gustducin may be combined with βγ subunits prior to this step, as set forth above. To the reaction mixture comprising taste receptors and gustducin or transducin, test inhibitor and/or bitter tastant may be added, and the resulting solution incubated to permit interaction of the elements.
In preferred embodiments, activation is assessed by a trypsin digestion assay. […] In a specific, non-limiting example, to perform a trypsin digestion assay according to the invention, TPCK-treated trypsin (1:25 trypsin to total protein in the reaction mixture) may be added, and the digestion may be performed at room temperature for about 15 minutes and stopped by adding soybean trypsin inhibitor (6:1 mol/mol inhibitor to trypsin). […] The separated polypeptides may then be transferred by electro-blotter to a poly (vinylidene difluoride) membrane blocked by the addition of 5% BLOTTO [50 mM Tris-HCI, pH 7.4/100 mM NaCl/5% nonfat dry milk], (30 min). G-protein peptides may then be visualized by binding of antibody directed toward transducin or gustducin, followed, for example, by binding of a detectably labeled secondary antibody. If a horseradish peroxidase-labeled secondary antibody is used, binding may be visualized by developing with bicinchoninic acid staining reagents and exposure to x-ray film.
G Protein Activation Assays. Bovine (Bos primigenius) tongues were collected fresh from a local slaughterhouse and transported on ice to the laboratory. Circumvallate papillae were hand dissected, frozen in liquid nitrogen, and stored at −80° C. until use. […] The pelleted membranes were rinsed twice, resuspended in homogenization buffer lacking protease inhibitors, and further homogenized by 20 passages through a 25-gauge needle. Aliquots were either flash frozen or stored on ice until use. […] The separated polypeptides were transferred by electro-blotter to a poly (vinylidene difluoride) membrane, which was blocked by the addition of 5% BLOTTO [50 mM Tris-HCI, pH 7.4/100 mM NaCl/5% nonfat dry milk], (30 min), then transducin peptides were visualized by binding of transducin antiserum and horseradish peroxidase-labeled goat anti-rabbit secondary antibody, followed by developing with bicinchoninic acid staining reagents from Bio-Rad and exposure to x-ray film.
Chemicals. All bitter tastant and buffer chemicals were of the highest purity available and were purchased either from Sigma or Boehringer Mannheim, unless otherwise noted. […] The rabbit polyclonal antitransducin antibody was a kind gift of Mel Simon and John Watson (California Institute of Technology, Pasadena, Calif.).

C57BL/6J mice = test: Forty-eight-hour two-bottle preference test (behavioral assay); format: in vivo
Method: Behavioral Assays. Multiple sets of male C57BL/6J mice from the Jackson Laboratory were tested. Each set (n=10) was tested with tastant±AMP or GMP. Between tests, mice were provided with acidified water (pH 4.5) for about 2 wk. Tested mice ranged in age from 8 to 20 wk. Mice were individually housed, provided with food ad libitum (Pico Lab Mouse Diet 20 no. 5058; PMI Feeds, St. Louis, Mo.) and presented with distilled water in two sipper bottles for 48 h before testing. During each 48-h test period, a given concentration of tastant was provided in one sipper bottle, whereas the other had distilled water. After 24 h, volumes consumed were recorded, the bottles refilled, and positions reversed (to control for positional cues). Tastants were presented in ascending concentration. Preference ratios were calculated as the fraction of tastant consumed as a percentage of the total volume of liquid consumed. Mean preference ratios and Student's t tests were calculated from total collected data.

[2] = system: glossopharyngeal nerve responses of C57BL/6J mice; test: Glossopharyngeal nerve recording on lingual stimulation with tastants; format: in vivo
Method: Nerve Recording. Glossopharyngeal nerve responses were recorded from male C57BL/6J mice as previously described (Ninomiya, Y., et al., 1997, Am. J. Physiol. (London) 272:R1002-RI006). Each mouse was anesthetized with intraperitoneal injection of sodium pentobarbital (40-50 mg/kg) and maintained at a surgical level of anesthesis with supplemental injections of the drug. The trachea was cannulated, and the mouse was then fixed in the supine position with a head holder to allow dissection of the glossopharyngeal nerve. The hypoglossal nerve was transected bilaterally to prevent inadvertent tongue movements. The right glossopharyngeal nerve was exposed by removal of the digastric muscle and posterior horn of the hyoid bone. The glossopharyngeal nerve was then dissected free from underlying tissues and cut near its entrance to the posterior foramen lacerum. The entire nerve was placed on a silver wire electrode for whole nerve recording. An indifferent electrode was positioned nearby in the wound. […] Whole nerve responses were integrated by using an RMS-DC converter (Hendrick, Tallahassee, Fla.) with a time constant of 0.5 s. For chemical stimulation of the circumvallate and foliate papillae, an incision was made on each side of the animal's face from the comer of the mouth to just above the angle of the jaw, the papillae were exposed, and their trenches opened via slight tension applied through a small suture sewn in the tip of the tongue. Tastant solutions were delivered to the tongue by gravity flow, and flowed over the tongue for a controlled period. The stability of each preparation was monitored by the periodic application of 0.1 M NH4Cl. A recording was considered to be stable when the 0.1 M NH4Cl response magnitudes at the beginning and end of each stimulation series deviated by no more than 15%. Only responses from stable recordings were used in the data analysis. In the analysis of whole nerve responses, the magnitudes of the integrated response at 20, 25, 30, 35. and 40 s after stimulus onset were measured and averaged to generate tonic responses: the tonic response represents the sustained nerve response to continuous tastant stimulation of taste receptor cells. The relative tonic response for each stimulus was obtained by normalization to the response from 0.1 M NH4Cl (the tonic response of NH4Cl was defined as 1.0). Student's t test was used for statistical analysis.

[3] = DEN, QUI and other bitter compounds

Q: For Nc1ncnc2c1ncn2[C@@H]1O[C@H](COP(=O)(O)O)[C@@H](O)[C@H]1O [AMP, adenosine 5′ monophosphate], which “inhibition of activation of transducin by QUI plus bovine taste membranes” value ([1]; 1.0 mM QUI, AMP 0.01-2.5 mM, FIG. 1B) is on record?
A: inhibit; also recorded: inhibited in a dose-dependent fashion

Q: What about the “inhibition of taste membrane-dependent activation of transducin by atropine hydrochloride” value ([1]; AMP 2.5 mM, ATR 5.0 mM, FIG. 1C) of the same molecule?
A: inhibits; also recorded: inhibitory effect

Q: And the “inhibition of taste membrane-dependent activation of transducin by DEN” value ([1]; AMP 2.5 mM, DEN 5.0 mM, FIG. 1C)?
A: inhibits; also recorded: inhibitory effect

Q: What about the “inhibition of taste membrane-dependent activation of transducin by nicotine hemisulfate” value ([1]; AMP 2.5 mM, NIC 5.0 mM, FIG. 1C) of the same molecule?
A: inhibits; also recorded: inhibitory effect

Q: And the “inhibition of taste membrane-dependent activation of transducin by QUI” value ([1]; AMP 2.5 mM, QUI 1.0 mM, FIG. 1C)?
A: inhibits; also recorded: inhibitory effect

Q: What about the “inhibition of taste membrane-dependent activation of transducin by strychnine hydrochloride” value ([1]; AMP 2.5 mM, STR 5.0 mM, FIG. 1C) of the same molecule?
A: inhibits; also recorded: inhibitory effect

Q: And the “inhibition of in vitro activation of transducin (G-protein) by taste membranes plus bitter compounds, summary statement” value ([1]; DEN, QUI and other bitter compounds, concentrations not given)?
A: inhibits

Q: And the “inhibition of taste membrane activation of transducin by caffeic acid” value ([1]; concentrations not given)?
A: inhibitory effect

Q: What about the “inhibition of taste membrane activation of transducin by naringin” value ([1]; concentrations not given) of the same molecule?
A: inhibitory effect

Q: And the “inhibition of taste membrane activation of transducin by quinacrine” value ([1]; concentrations not given)?
A: inhibitory effect

Q: And the “inhibition of taste membrane activation of transducin by sparteine” value ([1]; concentrations not given)?
A: inhibitory effect

Q: And the “inhibition of activation of transducin by DEN plus bovine taste receptor membranes” value ([1]; inhibitor 0.25, 0.5, 1.25, 2.5, 5.0 mM, DEN 5.0 mM, shift from 32-kDa to 23-kDa fragments, FIG. 1A/1E)?
A: inhibit; also recorded: inhibited in a dose-dependent fashion

Q: And the “shift of DEN dose-aversiveness curve” value (C57BL/6J mice; AMP 0.1, 1.0, 5.0 mM, FIG. 3B)?
A: shifted the dose-aversiveness curve to the right

Q: And the “concentration at which AMP alone elicits behavioral responses” value (C57BL/6J mice; AMP alone, two-bottle preference, FIG. 3B)?
A: ≥ 0.5 mM

Q: What about the “inhibitory effect on aversive responses at highest concentration of DEN” value (C57BL/6J mice; DEN 5.0 mM, FIGS. 3A-B) of the same molecule?
A: eliminated; also recorded: overcame

Q: What about the “inhibition of aversive responses to DEN” value (C57BL/6J mice; DEN 0.05, 0.10, 0.50, 1.0 mM, inhibitor 0.1 and 1.0 mM, n=10, P<0.001, FIG. 3A) of the same molecule?
A: inhibited

Q: What about the “inhibition of behavioral (aversive) responses to bitter compounds, summary statement” value (C57BL/6J mice; [3]) of the same molecule?
A: blocks

Q: And the “effect on behavioral responses to HCl” value (C57BL/6J mice; HCl 0.01 and 0.10 mM, 0.1 mM AMP, FIG. 3E)?
A: did not alter; also recorded: did not affect

Q: And the “effect on behavioral responses to NaCl” value (C57BL/6J mice; NaCl 0.1 and 0.3 M, 0.1 mM AMP, FIG. 3E)?
A: did not alter; also recorded: did not affect

Q: And the “inhibitory effect on aversive responses at highest concentration of QUI” value (C57BL/6J mice; QUI 1.0 mM, FIGS. 3C-D)?
A: eliminated; also recorded: overcame

Q: And the “inhibition of aversive responses to QUI” value (C57BL/6J mice; QUI 0.05, 0.10, 0.50 mM, inhibitor 0.1 and 0.5 mM, n=10, P<0.001, FIG. 3C)?
A: inhibited

Q: What about the “effect on behavioral responses to SC45647” value (C57BL/6J mice; SC45647 0.01 and 0.10 mM, 0.1 mM AMP, FIG. 3E) of the same molecule?
A: did not alter; also recorded: did not affect; also recorded: did not diminish

Q: And the “inhibition of aversive responses to sparteine (SPA)” value (C57BL/6J mice; SPA 0.05 and 0.10 mM, 0.1 mM AMP, P<0.001, FIG. 3E)?
A: inhibited

Q: What about the “inhibition of aversive responses to (−)-epicatechin” value (C57BL/6J mice; epicatechin 0.05 and 0.10 mM, 0.1 mM AMP, P<0.01, FIG. 3E) of the same molecule?
A: inhibited

Q: What about the “shift of QUI dose-aversiveness curve” value (C57BL/6J mice; increasing concentrations of AMP, FIG. 3D) of the same molecule?
A: shifted the dose-aversiveness curve to the right

Q: And the “effect on behavioral responses to sucrose” value (C57BL/6J mice; sucrose 5.0 and 150 mM, 0.1 mM AMP, FIG. 3E)?
A: did not alter; also recorded: did not affect

Q: What about the “inhibition of glossopharyngeal nerve responses to atropine” value ([2]; 1.0 mM ATR, inhibitor 0.1 mM, FIGS. 4A-C) of the same molecule?
A: significantly inhibited

Q: What about the “inhibition of glossopharyngeal nerve responses to sparteine” value ([2]; 1.0 mM SPA, inhibitor 0.1 mM, FIGS. 4A-C, 4I (P<0.001)) of the same molecule?
A: inhibits; also recorded: significantly inhibited

Q: And the “inhibition of glossopharyngeal nerve responses to strychnine” value ([2]; 1.0 mM STR, inhibitor 0.1 mM, FIGS. 4A-C)?
A: significantly inhibited

Q: And the “effect on glossopharyngeal nerve responses to SC45647” value ([2]; 3.0 mM SC45647, 0.1 mM AMP, P<0.01, FIG. 4I)?
A: inhibits; also recorded: inhibited slightly; also recorded: did diminish

Q: And the “inhibition of glossopharyngeal nerve responses to DEN” value ([2]; 5.0 mM DEN, inhibitor 0.1 mM, FIGS. 4A-C)?
A: significantly inhibited

Q: What about the “effect on glossopharyngeal nerve responses to HCl” value ([2]; 5.0 mM HCl, 0.1 mM AMP, FIG. 4I) of the same molecule?
A: did not affect

Q: And the “effect on glossopharyngeal nerve responses to NH4Cl” value ([2]; 0.1 M NH4Cl, 0.1 mM AMP)?
A: did not affect

Q: What about the “effect on glossopharyngeal nerve responses to NaCl” value ([2]; 0.1 M NaCl, 0.1 mM AMP, FIG. 4I) of the same molecule?
A: did not affect

Q: What about the “effect on glossopharyngeal nerve responses to sucrose” value ([2]; 0.5 M sucrose, 0.1 mM AMP, FIG. 4I) of the same molecule?
A: did not affect

Q: What about the “inhibition of relative tonic glossopharyngeal responses to rising DEN concentrations” value ([2]; DEN 0.1, 0.5, 1.0, 5.0, 10.0 mM, AMP 0.1 and 1.0 mM, n=5 to 7, FIG. 4G) of the same molecule?
A: significantly inhibited

Q: And the “inhibition of gustatory (glossopharyngeal) nerve responses to bitter compounds, summary statement” value [2, 3]?
A: diminishes

Q: What about the “inhibition of relative tonic glossopharyngeal responses to rising QUI concentrations” value ([2]; QUI 0.1, 0.3, 1.0 mM, AMP 0.1 and 1.0 mM, n=6 to 8, FIG. 4H) of the same molecule?
A: significantly inhibited; also recorded: reached a plateau

Q: And the “inhibition of glossopharyngeal nerve responses to QUI” value ([2]; QUI 0.1 and 1.0 mM, inhibitor 0.1 mM, FIGS. 4D-F)?
A: significantly inhibited
